Results as given in patent US10449184B2, “Pharmaceutical compositions of therapeutically active compounds” (Agios Pharmaceuticals, Inc., priority 2014, dated 2019).
“Also recorded” adds a separate entry of the source. Marks after values point to notes of the source that are not given here.

How the values were obtained:
[1] = system: primary human IDH-mutated blast cells; test: intracellular 2HG in primary blast cells ex vivo; type: cell-based; details: 0.5 uM, 1 uM and 5 uM
2HG = test: Phase 1 clinical trial: plasma 2HG inhibition; type: in vivo, human; details: all dose levels
Method: Samples collected for PK assessments also will be used to assess 2HG levels. In addition, subjects will have blood drawn for determination of 2HG levels at the screening assessment.
The 2HG baseline was taken at Day −3 pre-treatment 2HG inhibition estimated based on 2HG pre-treatment level and AUC0-10 hr post treatment. For the 100 mg BID and 300 mg QD Cohorts, 3 to 4 patients were measured per time point and for the 500 mg QD Cohort, 1 to 3 patients were measured per time point.

[2] = system: IDH1 mutant R132H xenograft model; test: 2HG reduction in IDH1 mutant R132H xenograft model; type: in vivo; details: single dose (50 mg/kg)
[3] = Phase 1 clinical trial: safety, adverse events and patient disposition; type: in vivo, human
Source text: The study includes a dose escalation phase to determine MTD followed by expansion cohorts to further evaluate the safety and tolerability of the MTD. The dose escalation phase will utilize a standard “3+3” design. […] Each dose cohort will plan to enroll a minimum of 3 subjects. The first 3 subjects enrolled in each dosing cohort during the dose escalation phase of the study will initially receive a single dose of study drug on Day −3 (i.e., 3 days prior to the start of daily dosing) and undergo PK/PD assessments over 72 hours to evaluate drug concentrations and 2HG levels. The next dose of study drug will be on Cycle 1 Day 1 (C1D1) at which time daily dosing will begin. The initial dosing regimen will be twice daily (approximately every 12 hours). If warranted based on the emerging data, an alternative dosing schedule (e.g., once daily or three times daily), including administration of the same total daily dose using different dosing schedules in concurrent cohorts, may be explored. If there are multiple subjects in the screening process at the time the third subject within a cohort begins treatment, up to 2 additional subjects may be enrolled with approval of the Medical Monitor. For these additional subjects, the Day −3 through Day 1 PK/PD assessments are optional following discussion with the Medical Monitor. The planned dose escalation scheme is illustrated in Table 1.
Toxicity severity will be graded according to the National Cancer Institute Common Terminology Criteria for Adverse Events (NCI CTCAE) version 4.03. A DLT is defined as follows. Hematologic includes prolonged myelosuppression, defined as persistence of ≥3 Grade neutropenia or thrombocytopenia (by NCI CTCAE, version 4.03, leukemia-specific criteria, i.e., marrow cellularity <5% on Day 28 or later from the start of study drug without evidence of leukemia) at least 42 days after the initiation of Cycle 1 therapy. Leukemia-specific grading should be used for cytopenias (based on percentage decrease from baseline: 50 to 75%=Grade 3, >75%=Grade 4). All AEs that cannot clearly be determined to be unrelated to Compound 1, or a pharmaceutically acceptable salt thereof will be considered relevant to determining DLTs.
AEs, including determination of DLTs, serious adverse events (SAEs), and AEs leading to discontinuation; safety laboratory parameters; physical examination findings; vital signs; 12-lead ECGs; LVEF; and ECOG PS will be monitored during the clinical study. The severity of AEs will be assessed by the NCI CTCAE, Version 4.03.
Adverse events will be summarized by Medical Dictionary for Regulatory Activities (MedDRA) system organ class and preferred term. Separate tabulations will be produced for all treatment-emergent AEs (TEAEs), treatment-related AEs (those considered by the Investigator as at least possibly drug related), SAEs, discontinuations due to AEs, and AEs of at least Grade 3 severity. By-subject listings will be provided for deaths, SAEs, DLTs, and AEs leading to discontinuation of treatment.

Q: Which results are given for N#Cc1ccnc(N2C(=O)CC[C@H]2C(=O)N(c2cncc(F)c2)[C@H](C(=O)NC2CC(F)(F)C2)c2ccccc2Cl)c1 [Compound 1, (S)—N—((S)-1-(2-chlorophenyl)-2-((3,3-difluorocyclobutyl)amino)-2-oxoethyl)-1-(4-cyanopyridin-2-yl)-N-(5-fluoropyridin-3-yl)-5-oxopyrrolidine-2-carboxamide]?
A: intracellular 2HG [1]: reduced intracellular 2HG; plasma levels of 2HG (2HG; 100 mg BID, 300 mg QD or 500 mg QD): reduced to a normal range; also recorded: reduced to normal ranges; plasma 2HG inhibition (2HG; vs Day -3 pre-treatment level, AUC0-10 hr post treatment): up to 98%; 2HG in xenograft [2]: Reduction in 2HG was observed; subjects discontinued study due to an intracranial bleed (SAE, resulted in death) ([3]; 100 mg BID): 1; QT prolongation observed ([3]; 100 mg cohort, patient with history of R BBB): patient population. Other QT prolongations observed: Grade 1 prolonged; subjects who experienced differentiation syndrome (SAE) ([3]; 300 mg QD): 1; DLT (dose limiting toxicity) observed ([3]; 800 mg QD): One DLT (dose limiting toxicity) of grade 3 QT prolongation; subjects who experienced tongue edema and QT prolongation (SAE) ([3]; 800 mg QD): 1; QT prolongation observed ([3]; 800 mg cohort): 300 mg cohort; and Grade 3 prolonged QT (DLT) in 800 mg cohort.; At least 1 adverse event ([3]; All grades): 14 (82) n (%); Cough ([3]; All grades): 4 (24) n (%); Diarrhea ([3]; All grades): 3 (18) n (%); Dyspnea ([3]; All grades): 5 (29) n (%); Electrocardiogram QT prolonged ([3]; All grades): 3 (18) n (%); Fatigue ([3]; All grades): 5 (29) n (%); Febrile neutropenia ([3]; All grades): 3 (18) n (%); Nausea ([3]; All grades): 5 (29) n (%); Pyrexia ([3]; All grades): 4 (24) n (%); Vomiting ([3]; All grades): 4 (24) n (%); Death ≤28 days after Compound 1 Discontinuation ([3]; All patients (N = 17)): 6; Discontinued due to AE (intracranial hemorrhage) ([3]; All patients (N = 17)): 1** n; Discontinued due to PD (progressive disease) ([3]; All patients (N = 17)): 4 n; Death ≤28 days after Compound 1 Discontinuation ([3]; Cohort 1 100 mg BID (n = 4)): 3; Discontinued due to AE (intracranial hemorrhage) ([3]; Cohort 1 100 mg BID (n = 4)): 1** n; Discontinued due to PD (progressive disease) ([3]; Cohort 1 100 mg BID (n = 4)): 2 n; Death ≤28 days after Compound 1 Discontinuation ([3]; Cohort 2 300 mg QD (n = 4)): 2; Discontinued due to PD (progressive disease) ([3]; Cohort 2 300 mg QD (n = 4)): 1 n; Death ≤28 days after Compound 1 Discontinuation ([3]; Cohort 3 500 mg QD (n = 4)): 1; Discontinued due to PD (progressive disease) ([3]; Cohort 3 500 mg QD (n = 4)): 1 n; At least 1 adverse event ([3]; Grade ≥3): 11 (65) n (%); Cough ([3]; Grade ≥3): 0 n (%); Diarrhea ([3]; Grade ≥3): 0 n (%); Dyspnea ([3]; Grade ≥3): 2 (12) n (%); Electrocardiogram QT prolonged ([3]; Grade ≥3): 1 (6) n (%); Fatigue ([3]; Grade ≥3): 1 (6) n (%); Febrile neutropenia ([3]; Grade ≥3): 3 (18) n (%); Nausea ([3]; Grade ≥3): 1 (6) n (%); Pyrexia ([3]; Grade ≥3): 1 (6) n (%); Vomiting ([3]; Grade ≥3): 0 n (%); hypotension ([3]; Grade ≥3): Notable grade ≥3 AEs include: hypotension 2 (12%), mental status n (%); mental status changes ([3]; Grade ≥3): changes 2 (12%), neutropenia 2 (12%). AEs appear typical for this n (%); neutropenia ([3]; Grade ≥3): changes 2 (12%), neutropenia 2 (12%). AEs appear typical for this n (%); subjects who experienced serious adverse events ([3]; all cohorts): Eight
